We go through one compound from patent US8795977B2, “Method for screening a potential modulator compound of a taste receptor” (Conopco, Inc., priority 2009, dated 2014).

This test concerns the target T1, T1R1/T1R3 umami receptor (Homo sapiens, UniProt Q7RTX0+Q7RTX1, C757R).
T1 construct: expressed in transfected cells; host or cells: HEK293 cells, transiently transfected (Lipofectamine 2000)
T1 sequence (Q7RTX1 21-841): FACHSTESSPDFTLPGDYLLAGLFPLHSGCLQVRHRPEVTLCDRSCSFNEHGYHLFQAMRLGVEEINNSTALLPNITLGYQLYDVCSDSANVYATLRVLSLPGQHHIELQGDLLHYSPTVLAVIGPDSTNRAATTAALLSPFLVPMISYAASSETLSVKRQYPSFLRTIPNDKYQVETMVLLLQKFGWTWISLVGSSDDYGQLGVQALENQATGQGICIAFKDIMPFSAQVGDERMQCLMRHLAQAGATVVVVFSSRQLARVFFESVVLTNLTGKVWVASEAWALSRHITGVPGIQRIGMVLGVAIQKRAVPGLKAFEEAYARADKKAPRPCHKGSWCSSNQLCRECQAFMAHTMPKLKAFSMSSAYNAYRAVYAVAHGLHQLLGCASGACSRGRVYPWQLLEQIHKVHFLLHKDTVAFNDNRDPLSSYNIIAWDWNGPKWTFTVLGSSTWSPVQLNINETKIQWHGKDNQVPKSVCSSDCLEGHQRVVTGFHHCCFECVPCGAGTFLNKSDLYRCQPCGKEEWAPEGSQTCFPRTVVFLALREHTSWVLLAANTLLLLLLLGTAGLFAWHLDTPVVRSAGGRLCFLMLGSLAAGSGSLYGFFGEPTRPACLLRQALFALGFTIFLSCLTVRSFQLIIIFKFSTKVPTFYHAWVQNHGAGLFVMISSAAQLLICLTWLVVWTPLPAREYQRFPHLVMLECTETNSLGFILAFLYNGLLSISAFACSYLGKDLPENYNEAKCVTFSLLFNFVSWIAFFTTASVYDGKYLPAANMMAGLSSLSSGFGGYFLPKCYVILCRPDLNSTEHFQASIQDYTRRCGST
T1 sequence (Q7RTX0 with tags, fused parts or gaps C757R): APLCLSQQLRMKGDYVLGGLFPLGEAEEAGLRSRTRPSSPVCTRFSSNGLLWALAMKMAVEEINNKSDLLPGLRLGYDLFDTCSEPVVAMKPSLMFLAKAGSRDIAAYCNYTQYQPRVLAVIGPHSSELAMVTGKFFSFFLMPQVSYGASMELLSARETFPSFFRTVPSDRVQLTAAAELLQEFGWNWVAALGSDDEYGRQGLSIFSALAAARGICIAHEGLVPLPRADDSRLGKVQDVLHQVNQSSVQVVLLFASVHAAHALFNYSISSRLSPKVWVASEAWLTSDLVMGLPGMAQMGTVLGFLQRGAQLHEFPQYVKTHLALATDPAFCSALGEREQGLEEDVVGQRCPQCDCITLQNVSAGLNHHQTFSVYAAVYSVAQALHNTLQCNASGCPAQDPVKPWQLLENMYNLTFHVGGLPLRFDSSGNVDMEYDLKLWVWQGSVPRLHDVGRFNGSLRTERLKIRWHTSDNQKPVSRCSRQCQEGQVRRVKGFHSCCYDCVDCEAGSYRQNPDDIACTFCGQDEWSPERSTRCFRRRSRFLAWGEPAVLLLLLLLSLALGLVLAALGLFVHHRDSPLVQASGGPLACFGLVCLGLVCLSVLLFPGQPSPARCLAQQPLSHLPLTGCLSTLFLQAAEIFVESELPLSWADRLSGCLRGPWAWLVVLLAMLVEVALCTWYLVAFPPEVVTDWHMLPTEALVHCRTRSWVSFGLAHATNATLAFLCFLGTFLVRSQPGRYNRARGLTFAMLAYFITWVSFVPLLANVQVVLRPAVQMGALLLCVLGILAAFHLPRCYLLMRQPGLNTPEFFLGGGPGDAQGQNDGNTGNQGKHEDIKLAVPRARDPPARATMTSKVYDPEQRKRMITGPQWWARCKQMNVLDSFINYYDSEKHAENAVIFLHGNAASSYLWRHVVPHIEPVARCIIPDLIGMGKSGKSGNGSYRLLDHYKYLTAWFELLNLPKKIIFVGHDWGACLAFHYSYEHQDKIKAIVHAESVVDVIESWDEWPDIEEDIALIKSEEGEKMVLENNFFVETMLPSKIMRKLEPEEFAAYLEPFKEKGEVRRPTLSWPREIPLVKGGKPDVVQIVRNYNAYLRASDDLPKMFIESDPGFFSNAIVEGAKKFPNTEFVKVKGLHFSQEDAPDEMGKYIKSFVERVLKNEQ
Description: BRET assay (T1R1/T1R3-Rluc and GFP-2-β-arrestin-2 in HEK293 cells). Also noted: key: +: A BRET signal above the values achieved for buffer alone was defined as umami receptor-specific. It counts as cell-based. The note with it: MSG 10 mM. The protocol: FIG. 2 Activation of the T1R1/T1R3 umami receptor expressed in HEK293-Gα15 cells as measured by BRET assays as described in Example 2. Test solutions (or buffer) as indicated and substrate were added to the cells. The BRET signals were determined as the ratio between readings taken at the acceptor wavelength (515 nm) divided by the signals determined for the donor (400 nm). To correct for background signal due to overlap of donor emission at the acceptor wavelength, the BRET ratio was determined in parallel for cells expressing the donor alone (T1R1/T1R3-Rluc). This BRET background value was subtracted from the BRET value obtained for the cells expressing both BRET partners (BRET=BRET ratio−background ratio). A BRET signal above the values achieved for buffer alone was defined as umami receptor-specific (see also table 2B).
The extracts or crude mixtures described below are examples for natural samples unsuitable for testing with a calcium-based receptor assay due to their high non-specific background signal. They are from different origin and are selected to illustrate a wide range of potential test samples. […] Calcium-Based Receptor Assay: Activation of the T1R1/T1R3 umami receptor expressed in HEK293-Gα15 cells has been measured by monitoring the release of intracellular calcium. […]

As for `N[C@@H](CCC(=O)O)C(=O)[O-].[Na+]` [MSG, Monosodium glutamate], the “T1R1/T1R3 receptor-specific signal, BRET assay” value is listed as “+”.
